{"source": "patent US20090197947A1", "about": "“MEDICAMENTS AND METHODS FOR LOWERING PLASMA LIPID LEVELS AND SCREENING DRUGS” (The Research Foundation of State University of New York, priority 2008, published 2009)", "key": {"[1]": {"system": "Caco-2 cells", "assay": "Caco-2 cells treated with MTP and ACAT antagonists, alone or in combination", "assay_type": "cell-based", "parameters": "inhibition of cellular esterification of [3H] cholesterol: dose or concentration left out as unconfirmed", "experimental": "Thus, it was hypothesized that MTP (BMS 197636) and ACAT (1 488 17) antagonists would inhibit cellular esterification by independent mechanisms and their effect would be additive. To test this hypothesis, Caco-2 cells were treated with different amounts of these inhibitors, alone or in combination, and the inhibition was compared with cells that were not exposed to any inhibitors (FIG. 9, L-N). Increasing concentrations of BMS 197636 decreased apoB secretion (FIG. 9, L). In contrast, ACAT inhibitor had no effect on apoB secretion. […] ApoAI secretion was resistant to both the inhibitors (FIG. 9, M). […] These inhibitors in combination reduced cholesteryl ester synthesis by 45 +/−4% (FIG. 9, N). Thus, MTP and ACAT act in tandem and facilitate cellular cholesteryl esterification."}, "[2]": {"system": "AC29 cells that do not express MTP but stably express ACAT1 or ACAT2", "assay": "Cellular cholesteryl ester synthesis in AC29 cells that do not express MTP", "assay_type": "cell-based", "settings": "AC29 cells stably expressing ACAT1 or ACAT2", "experimental": "Next, the effect of these inhibitors on cellular cholesteryl ester synthesis was examined. […] In these cells, MTP inhibitor BMS 197636 had no effect on cellular cholesteryl ester synthesis (FIG. 9, J and K). However, incubation of these cells with ACAT inhibitor 148817 reduced radio-labeled cholesteryl esters by 83-87% (FIG. 9, J, K)."}, "[3]": {"assay": "Effect of efflux enhancer and cholesterol biosynthesis inhibitor on plasma lipids and liver function enzymes in PBS and pIpC injected animals", "assay_type": "in vivo, mice", "settings": "50 mg/Kg oral gavage every day for 2 weeks; for plasma cholesterol levels / plasma triglyceride levels: MTP gene deleted (pIpC injected) mice", "source_text": "In this Example, blood was collected from tail vein of animals on day 1 of the experiment and used to measure plasma lipid and liver function enzyme levels (Day 1, “Control”). Conditional MTP deletion was achieved by injecting pIpC three times in […] mice on alternate days. Control group mice (n=2) received either PBS (open bars) or pIpC (closed bars) injections. […] On day 8, blood was again collected to measure changes in plasma lipid and liver function enzyme levels. Mice were sacrificed on day 16 and plasma samples were then assayed for total cholesterol (A), triglyceride (B), ALT (C) and AST (D) levels. Each measurement was performed in triplicate. The asterisks show statistically significant differences between PBS and pIpC injected mice. (*, p<0.05, **, p<0.01, ***, p<0.001.)"}, "[4]": {"assay": "Effect of efflux enhancer and cholesterol biosynthesis inhibitor on hepatic mRNA, MTP activity and lipid levels in PBS and pIpC injected animals", "assay_type": "in vivo", "settings": "liver of drug administered pIpC injected mice", "source_text": "In this Example, total RNA was isolated from the liver of drug administered PBS and pIpC injected mice and used for quantitative RT-PCR of HMG-CoA reductase (FIG. 5, Panel A), ABCA1 (FIG. 5, Panel B), MTP (FIG. 5, Panel C) as well as ARPp0 mRNA. The ratio of candidate gene to ARPp0 in one PBS injected mice was used for normalization. Liver tissues were also used to measure MTP activity (FIG. 5, Panel D). In addition, triglyceride (FIG. 5, Panel E), total (FIG. 5, Panel F), Free (FIG. 5, Panel G) and Esterified (FIG. 5, Panel H) cholesterol levels were measured. (*, p<0.05, **, p<0.01, ***, p<0.001.)"}, "[5]": {"system": "liver microsomes"}}, "data": [{"smiles": "CCCNC(=O)C1(CCCCN2CCC(N3Cc4ccccc4C3=O)CC2)c2ccccc2-c2ccccc21", "note": "[BMS 197636]", "values": [{"measurement": "ApoAI secretion", "setting": "[1]", "value": "resistant"}, {"measurement": "apoB secretion", "setting": "[1]; increasing concentrations, inhibitor alone", "value": "decreased"}, {"measurement": "inhibition of cellular esterification of [3H] cholesterol", "setting": "[1]; individually", "value": "25 +/−2%"}, {"measurement": "cellular cholesteryl ester synthesis", "setting": "[2]", "value": "no effect"}]}, {"smiles": "O=S(=O)(c1ccccc1)N(CC(F)(F)F)c1ccc(C(O)(C(F)(F)F)C(F)(F)F)cc1", "note": "[T0901317]", "values": [{"measurement": "plasma cholesterol levels", "setting": "[3]", "value": "not significantly altered"}, {"measurement": "plasma triglyceride levels", "setting": "[3]", "value": "not significantly altered"}, {"measurement": "increases in hepatic free cholesterol levels in MTP gene deleted animals", "setting": "[4]", "value": "reduced"}]}, {"smiles": "CCCCCCCCCCCCCCCC(=O)O[C@H]1CC[C@@]2(C)C(=CC[C@H]3[C@@H]4CC[C@H]([C@H](C)CCCC(C)C)[C@@]4(C)CC[C@@H]32)C1", "note": "[cholesteryl palmitate]", "values": [{"measurement": "concentration up to which microsomes are enriched with cholesterol (saturation thereafter)", "setting": "[5]; liver microsomes incubated 30 min, centrifuged", "value": "approximately 1.25 μM"}, {"measurement": "inhibition of cholesteryl ester synthesis", "setting": "[5]; liver microsomes, 0.5 μM cholesteryl palmitate", "value": 32, "unit": "%"}]}, {"smiles": "CC[C@H](C)C(=O)O[C@H]1C[C@@H](C)C=C2C=C[C@H](C)[C@H](CC[C@@H]3C[C@@H](O)CC(=O)O3)[C@H]21", "note": "[lovastatin, Lovastatin]", "values": [{"measurement": "plasma cholesterol levels", "setting": "[3]", "value": "not significantly altered"}, {"measurement": "plasma triglyceride levels", "setting": "[3]", "value": "not significantly altered"}, {"measurement": "increase in plasma ALT levels due to MTP gene deletion", "setting": "[3]; pIpC injected mice", "value": "not seen"}, {"measurement": "increase in plasma AST levels due to MTP gene deletion", "setting": "[3]; pIpC injected mice", "value": "not seen"}, {"measurement": "increases in hepatic free cholesterol levels in MTP gene deleted animals", "setting": "[4]", "value": "reduced"}]}]}
